In patent US12016906B2, “Pharmaceutical composition for anaemia” (Frimline Private Limited, priority 2018, dated 2024):

Key:
Type in all cases: in vivo, male Wistar rats (Rat Rattus)
[1] = test system: Iron deficient Diet (IDD) induced anaemia in rats; experiment: Ferroportin level in IDD induced anaemia in rats; set-up: Ferroportin % Change compared to Disease control: concentration or dose not given beside the values; conditions: for Ferroportin Post-treatment: Day 98, after 9 weeks of treatment p.o.; for Ferroportin Post-treatment / Ferroportin % Change compared to Disease control: IDD rats; for Ferroportin % Change compared to Disease control: Day 98
Method: (§1) Screening of pharmaceutical composition/formulation comprising combination of Lactoferrin+Guanosine Nucleotide or a pharmaceutically acceptable salt thereof with or without optional ingredients against Iron deficient Diet (IDD) induced anaemia in rats. For this study different parameters like Hb Level, Hematocrit level, Serum Iron level, Ferroportin level, Serum Ferritin level, Hepcidin level and IL-6 Level were evaluated. The following trials were carried out by taking reference from Wang Xl, Liu S, Xu H, Yan W, Effects of recombinant human lactoferrin on improving the iron status of IDA. Wei Sheng Yan Jiu. 2012 January; 41(1):13-7, 22 and Nora M. El-Sheikh, the Protective Effect of Soybean and Thyme on Iron Deficiency Anemia in Rats, the Egyptian Journal of Hospital Medicine (2008) Vol., 33: 510-520 as available.
(§2) 72 male Wistar rats (Rat Rattus) (6 per group) were maintained in animal house in a light/dark atmosphere based on a 12 hour cycle having temperature and relative humidity in the range of 22±3° C. and 30-70% respectively. To maintain the appropriate conditions, temperature and relative humidity were recorded three times daily. All animals were acclimatized for a minimum period of five days. Animals were maintained in the test setup for minimum 30 minutes once during the acclimatization period to reduce the stress. Animals were weighed on the day of receipt and observed daily for abnormalities if any. Detailed records of acclimatization were also maintained. Rats were housed 6 per cage in clean, sterilized Polypropylene cages. During complete experiment, animals were supplied with the standard certified rat pellet feed (manufactured by Keval sales corporation, Vadodara) and drinking water treated by the reverse osmosis ad libitum. Analysis reports for microbial load and contaminants in feed and water and nutrient content of feed were also retained.
(§3) In order to evaluate the activity against IDD induced anaemia, seventy two (72) rats were screened and divided in to twelve groups. For a comparative analysis, groups were divided as normal control (Group 1), disease control (Group 2), treatment groups with individual components (Group 3, Group 4, Group 5, Group 6 and Group 7 as Lactoferrin, Disodium Guanosine monophosphate (GMP), Guanosine diphosphate (GDP), Guanosine triphosphate (GTP) and Vitamin C respectively), test composition/formulation of the present invention (Group 8 as combination of Lactoferrin Disodium GMP, Group 9 as combination of Lactoferrin GDP, Group 10 as combination of Lactoferrin+GTP, […] as combination of Lactoferrin+Disodium GMP+Vitamin C) and reference standard drug (Group 12). Table 1 provides the details of the various groups and treatments conducted in the trial wherein group no. G3 to G12 are treatment groups.
(§4) Group nos. 2 to 12 animals under consideration were administered IDD (3 mg Fe/Kg of diet) for the period of 3 weeks, while group 1 animal received Normal pellet diet (35 mg Fe/Kg of diet).
(§5) After 5 weeks (35 days) of respective dietary intervention, once again hemoglobin level, HCT % level and serum iron level were analyzed and then, respective drug treatment was started with continuous administration of Iron deficient diets in all groups as mentioned above in Table 1.
(§6) After 9 weeks of respective drug treatment (total after 14 weeks from start of the study—98 days), various biochemical parameters were measured to evaluate the effect of respective individual and combination therapy on iron deficient anaemia model (G3 to G12).
(§7) • A. Clinical observations (Daily) • B. Mortality (Daily) • C. […]

[2] = test system: Iron deficient Diet (IDD) induced anaemia in rats; experiment: Serum ferritin level in IDD induced anaemia in rats; set-up: Ferritin % Change compared to Disease control: concentration or dose not given beside the values; conditions: for Ferritin Post-treatment: Day 98, after 9 weeks of treatment p.o.; for Ferritin Post-treatment / Ferritin % Change compared to Disease control: IDD rats; for Ferritin % Change compared to Disease control: Day 98
Method: as §1, §2, §3, §4, §5, §6, §7

[3] = test system: Iron deficient Diet (IDD) induced anaemia in rats; experiment: Hepcidin level in IDD induced anaemia in rats; set-up: Hepcidin % Change compared to Disease control: concentration or dose not given beside the values; conditions: for Hepcidin Post-treatment: Day 98, after 9 weeks of treatment p.o.; for Hepcidin Post-treatment / Hepcidin % Change compared to Disease control: IDD rats; for Hepcidin % Change compared to Disease control: Day 98
Method: as §1, §2, §3, §4, §5, §6, §7

[4] = test system: Iron deficient Diet (IDD) induced anaemia in rats; experiment: IL-6 level in IDD induced anaemia in rats; conditions: for IL-6 Post-treatment: Day 98, after 9 weeks of treatment p.o.; for IL-6 Post-treatment / IL-6 % Change compared to Disease control: IDD rats; for IL-6 % Change compared to Disease control: Day 98
Method: as §1, with “Jiu.” for “Jiu. 2012 January; 41(1):13-7, 22 and Nora M. El-Sheikh, the Protective Effect of Soybean and Thyme on Iron Deficiency Anemia in Rats, the Egyptian Journal of Hospital Medicine (2008) Vol., 33: 510-520 as available.”
as §2, §3, §5, §6
• A. Clinical observations (Daily) • B. Mortality (Daily) • C. Body weight (Initially and then weekly till the end of study) • D. After 3 and 5 weeks of Iron deficient diet supplement • (i) Hematological parameters (RBC count, Hb Level, Hematocrit % MCV, MCH and MCHC). • (ii) Serum Iron Level. • E. At the end of 14 weeks of study • (i) Hematological parameters (RBC count, Hb Level, Hematocrit %, MCV, MCH and MCHC). • (ii) Biochemical parameters (Serum Iron level, Ferroportin level, Serum Ferritin level, Hepcidin level, IL-6 level). Statistical Analysis: One way ANOVA followed by Tuckey's test was performed and p value<0.05 is considered to be statistically significant. […] Hematology: (after 3 Weeks and 5 Weeks of Feed Intervention and after 9 Weeks of Treatment)

[5] = test system: Iron deficient Diet (IDD) induced anaemia in rats; experiment: Hb level in IDD induced anaemia in rats; set-up: Hemoglobin % Change compared to Disease control: concentration or dose not given beside the values; conditions: for Hemoglobin Pre-treatment: Day 35, before treatment; for Hemoglobin Pre-treatment / Hemoglobin Post-treatment / Hemoglobin % Change compared to Disease control: IDD rats; for Hemoglobin Post-treatment: Day 98, after 9 weeks of treatment p.o.; for Hemoglobin % Change compared to Disease control: Day 98
Method: as §1, with “Jiu.” for “Jiu. 2012 January; 41(1):13-7, 22 and Nora M. El-Sheikh, the Protective Effect of Soybean and Thyme on Iron Deficiency Anemia in Rats, the Egyptian Journal of Hospital Medicine (2008) Vol., 33: 510-520 as available.”
as §2, §3
After 3 weeks of respective dietary intervention, the level of Hemoglobin was determined in each animal.
as §5, §6
• A. Clinical observations (Daily) • B. Mortality (Daily) • C. Body weight (Initially and then weekly till the end of study) • D. After 3 and 5 weeks of Iron deficient diet supplement • (i) Hematological parameters (RBC count, Hb Level, Hematocrit % MCV, MCH and MCHC). • (ii) Serum Iron Level. • E. At the end of 14 weeks of study • (i) Hematological parameters (RBC count, Hb Level, Hematocrit %, MCV, MCH and MCHC). • (ii) Biochemical parameters (Serum Iron level, Ferroportin level, Serum Ferritin level, Hepcidin level, IL-6 level).

[6] = test system: Iron deficient Diet (IDD) induced anaemia in rats; experiment: Hematocrit % level in IDD induced anaemia in rats; set-up: Hematocrit % Change compared to Disease control: concentration or dose not given beside the values; conditions: for Hematocrit Pre-treatment: Day 35, before treatment; for Hematocrit Pre-treatment / Hematocrit Post-treatment / Hematocrit % Change compared to Disease control: IDD rats; for Hematocrit Post-treatment: Day 98, after 9 weeks of treatment p.o.; for Hematocrit % Change compared to Disease control: Day 98
Method: as §1, §2, §3, §4
(§8) After 3 weeks of respective dietary intervention, the level of Hemoglobin was determined in each animal. Looking at low increase in hemoglobin. Hematocrit % (HCT %) level and serum iron level, further dietary intervention was continued for additional two (2) weeks.
as §5, §6, §7

[7] = test system: Iron deficient Diet (IDD) induced anaemia in rats; experiment: Serum iron level in IDD induced anaemia in rats; set-up: Serum IRON % Change compared to Disease control: concentration or dose not given beside the values; conditions: for Serum IRON Pre-treatment: Day 35, before treatment; for Serum IRON Pre-treatment / Serum IRON Post-treatment / Serum IRON % Change compared to Disease control: IDD rats; for Serum IRON Post-treatment: Day 98, after 9 weeks of treatment p.o.; for Serum IRON % Change compared to Disease control: Day 98
Method: as §1, §2, §3, §4, §8, §5, §6, §7

[8] = rats on iron deficient diet, after treatment for 9 weeks, compared to disease control group (G2)
[9] = rats on iron deficient diet, after treatment of 9 weeks, compared to disease control group (G2)

Row | Molecule | Ferroportin Post-treatment [1] | Ferroportin % Change compared to Disease control [1] | Ferritin Post-treatment [2] | Ferritin % Change compared to Disease control [2] | Hepcidin Post-treatment [3] | Hepcidin % Change compared to Disease control [3] | IL-6 Post-treatment [4] | IL-6 % Change compared to Disease control [4] | Hemoglobin Pre-treatment [5] | Hemoglobin Post-treatment [5] | Hemoglobin % Change compared to Disease control [5] | Hematocrit Pre-treatment [6] | Hematocrit Post-treatment [6] | Hematocrit % Change compared to Disease control [6] | Serum IRON Pre-treatment [7] | Serum IRON Post-treatment [7] | Serum IRON % Change compared to Disease control [7] | also measured
1 | Nc1nc2c(ncn2[C@@H]2O[C@H](COP(=O)([O-])[O-])[C@@H](O)[C@H]2O)c(=O)[nH]1.[Na+].[Na+] [Disodium GMP, Disodium Guanosine 5-Monophosphate] | 3.0 ng/mL | 11.4% | 700 ng/mL | −5.4% | 4303 ng/mL | −2.2% | 62.9 pg/mL | 0.9% | – | – | – | – | – | – | – | – | – | –
2 | Nc1nc2c(ncn2[C@@H]2O[C@H](COP(=O)([O-])[O-])[C@@H](O)[C@H]2O)c(=O)[nH]1.[Na+].[Na+] [Disodiurn GMP] | – | – | – | – | – | – | – | – | 8.54 g/dL | 9.18 g/dL | 40.8% | 35.35% | 38.89% | 51.3% | 2.82 ppm | 3.43 ppm | 28.8% | –
3 | O=S(=O)([O-])[O-].[Fe+2] [FeSO4, ferrous sulphate, reference compound] | 3.0 ng/mL | 12.5% | 720 ng/mL | −2.7% | 4260 ng/mL | −3.2% | 60.4 pg/mL | −3.2% | 8.71 g/dL | 15.2 g/dL | 134.0% | 35.10% | 47.22% | 83.7% | 2.43 ppm | 9.84 ppm | 269.2% | Hb level [5, 8]: significant increment; % Hematocrit level [6, 8]: significant increment; Serum Iron level [7, 8]: significant increase; Ferroportin level [1, 9]: no significant change; Serum Ferritin level [2, 9]: no significant change; Hepcidin level [3, 9]: no significant change; IL-6 level [4, 9]: no significant change
4 | Nc1nc2c(ncn2[C@@H]2O[C@H](COP(=O)(O)OP(=O)(O)O)[C@@H](O)[C@H]2O)c(=O)[nH]1 [GDP, Guanosine diphosphate] | 3.0 ng/mL | 11.1% | 702 ng/mL | −5.1% | 4351 ng/mL | −1.1% | 62.2 pg/mL | −0.3% | 8.62 g/dL | 9.34 g/dL | 43.4% | 35.61% | 37.77% | 46.9% | 3.30 ppm | 3.99 ppm | 49.7% | –
5 | Nc1nc2c(ncn2[C@@H]2O[C@H](COP(=O)(O)OP(=O)(O)OP(=O)(O)O)[C@@H](O)[C@H]2O)c(=O)[nH]1 [GTP, Guanosine triphosphate] | 3.0 ng/mL | 9.5% | 698 ng/mL | −5.7% | 4392 ng/mL | −0.2% | 62.2 pg/mL | −0.2% | 8.45 g/dL | 9.12 g/dL | 39.9% | 35.74% | 37.96% | 11.7% | 3.03 ppm | 3.98 ppm | 49.2% | –
6 | Vit C | 3.1 ng/mL | 12.9% | 689 ng/mL | −6.9% | 4267 ng/mL | −3.0% | 63.4 pg/mL | 1.6% | 8.28 g/dL | 9.22 g/dL | 41.5% | 35.64% | 37.24% | 44.9% | 2.76 ppm | 3.54 ppm | 32.7% | –
